# PubChem BioAssay AID485301 (The Scripps Research Institute Molecular Screening Center, 2010)
# Calls of active or inactive are those of the source.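 How the source made its calls: active means IC50 of 10 µM or less against the helicase of at least one HCV strain tested; inactive means the rest.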
# Experiments:
# Assay in all cases: NS3 helicase inhibition across HCV genotypes – biochemical, real-time fluorescence, genotypes 1b J4, 1b con1, 2a JFH1, selectivity assay, late-stage follow-up (AID 485301)
# Conditions in all cases: NS3 helicase unwinding, Cy5 molecular beacon fluorescence
# [1] = biological target: NS3h 1b (con1)
# [2] = biological target: NS3h 1b (J4)
# [3] = biological target: NS3h 2a (JFH1)
SMILES,IC50 [1],IC50 [2],IC50 [3]
COc1cccc(-n2c(SCc3cc(=O)oc4cc(O)c(O)cc34)nc3ccccc3c2=O)c1,> 500 µM (inactive),> 500 µM (inactive),> 500 µM (inactive)
COc1ccc(/C=N/NC(=O)c2cc(O)c(O)c(O)c2)cc1COc1ccc(C(=O)OCC(C)C)cc1,> 500 µM (inactive),> 500 µM (inactive),–
CCOc1cccc(C2C(C(=O)c3ccc(C)o3)=C(O)C(=O)N2Cc2ccccc2)c1 (stereo not drawn),> 500 µM (inactive),> 500 µM (inactive),> 500 µM (inactive)
COc1ccc(C=NNC(=O)c2cc(O)c(O)c(O)c2)cc1COc1ccc(C(=O)OCC(C)C)cc1,> 500 µM (inactive),> 500 µM (inactive),> 500 µM (inactive)
CCCCCOc1ccc(C2C(C(=O)c3ccc(C)o3)=C(O)C(=O)N2c2cc(C)on2)cc1 (stereo not drawn),> 500 µM (inactive),> 500 µM (inactive),> 500 µM (inactive)
Cc1cc(N2C(=O)C(O)=C(C(=O)c3ccc(C)o3)C2c2ccc(OCc3ccccc3)cc2)no1 (stereo not drawn),> 500 µM (inactive),> 500 µM (inactive),> 500 µM (inactive)
Cc1ccc(C(=O)C2=C(O)C(=O)N(Cc3ccco3)C2c2cccc(Cl)c2)o1 (stereo not drawn),> 500 µM (inactive),> 500 µM (inactive),> 500 µM (inactive)
COc1cc(C2C(C(=O)c3ccc(C)o3)=C(O)C(=O)N2c2cc(C)on2)ccc1OCc1ccccc1 (stereo not drawn),> 500 µM (inactive),> 500 µM (inactive),> 500 µM (inactive)
